This note sets out measurements from patent US9593305B2, “Differentiation of pluripotent stem cells” (Janssen Biotech, Inc., priority 2008, dated 2017).

In the assay the test system is H1 human embryonic stem cells. Description: Analog screening with GDF-8 and growth factor/agonist pool (Example 8, Tables 7 and 8). It counts as cell-based. The method in brief: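 H1 hESC clusters, washed free of growth factors, fed on alternate days over 4 days with DMEM:F12, 0.5% FCS, 2.5 μM compound, 25 ng/ml GDF-8 plus a 50 ng/ml growth-factor pool. Fixed cells immunostained for SOX17 and imaged; total SOX17 intensity normalised to positive control.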

The mark [1] stands for this setting: Plate 2, compound + EGF, FGF, PDGF-A, VEGF, PDGF-D, muscimol, GDF8.
The mark [2] stands for this setting: Plate 2, compound + EGF, FGF, PDGF-A, VEGF, PDGF-D, muscimol, GDF8, positive control Activin A/Wnt3a.
[3] abbreviates: Table 8: hits with greater than 25% activity of the positive control, with GDF-8 and growth factors/agonists.

The structures appear in SMILES notation.

For the compound `C=CCN1CC(=O)NCCCc2cncc(c2)-c2ncnc(n2)Nc2cccc(c2)C1` [Compound 40, 14-Prop-2-en-1-yl-3,5,7,14,17,23,27-heptaazatetracyclo[19.3.1.1˜2.6˜0.1˜8,12˜]heptacosa-1(25), 2(27), 3,5,8(26), 9,11,21,23-nonaen-16-one], under setting [1], the “Cell Number, Average Total Cell Number” value was determined as 4049 and the “Sox17 Expression, Average Total Intensity” value is recorded as 8.23E+07. For the same compound, under setting [2], the “Cell Number, % of positive control” value was 25.6 % of positive control and the “Sox17 Expression, % of positive control” value was 28.8 % of positive control. Moreover, under setting [3], the “Cell Number, % of positive control” value is 25.6 % of positive control; the “Sox17 Expression, % of positive control” value is 28.8 % of positive control; the “Sox17 Expression, Average Total Intensity” value is listed as 8.23E+07.
